Where a name gives a salt, the structure may show the parent alone.

From patent publication US20100048549A1, “Peptidomimetics selective for the somatostatin receptor subtypes 1 and/or 4” (priority 2005, published 2010) come the findings set out here.

The target in one assay is T1, human somatostatin receptor subtype sst4 (Homo sapiens, UniProt P31391).
T1 construct: expressed in transfected cells; host or cells: CHO cells (membranes)
T1 sequence (P31391 whole entry): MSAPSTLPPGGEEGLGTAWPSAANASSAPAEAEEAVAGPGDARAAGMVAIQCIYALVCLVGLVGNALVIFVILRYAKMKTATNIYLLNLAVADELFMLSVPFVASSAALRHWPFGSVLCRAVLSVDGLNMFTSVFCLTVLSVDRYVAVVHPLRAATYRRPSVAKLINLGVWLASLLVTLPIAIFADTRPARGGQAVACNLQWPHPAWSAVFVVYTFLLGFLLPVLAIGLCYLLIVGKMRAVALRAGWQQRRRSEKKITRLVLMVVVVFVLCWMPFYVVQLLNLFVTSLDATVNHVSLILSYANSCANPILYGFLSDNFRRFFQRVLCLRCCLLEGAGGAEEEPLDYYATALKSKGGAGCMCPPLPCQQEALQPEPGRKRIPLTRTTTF
Kind of assay: Competition binding with 125I-LTT-SRIF-28, CHO cell membranes, sst4. The settings on record: bound only; read-out: Ki values for the sst4. The procedure: (§1) The affinity of the compounds of the invention for the five human somatostatin receptor subtypes (sst1, sst2, sst3, sst4, and sst5) was determined in competition binding assays with (^125I-Tyr)-[Leu^8, DTrp^22]-Somatostatin-28 (^125I-LTT-SRIF-28). The biological material for these experiments consisted of membranes from Chinese hamster ovary (CHO) cells stably transfected with one of the five human somatostatin receptor subtypes. Membranes (3-20 μg of total protein per sample) and trace amount of ^125I-LTT-SRIF-28 were incubated in 10 mM Hepes, 1 mM EDTA, 5 mM MgCl2, 5 mg/ml of BSA and 30 μg/ml bacitracin, pH 7.6, with six concentrations of the compounds. Each concentration was run in duplicate. Nonspecific binding was defined by 1 μM somatostatin-14 (SRIF-14) and corresponded to 5-25% of total binding. After 60 min at room temperature, incubations were terminated by rapid vacuum filtration through GF/B glass fiber filter mats (presoaked at 4° C. in 200 ml of 10 mM Hepes, 1 mM EDTA, 5 mM MgCl2, pH 7.6) and three 5 ml washes with ice-cold wash buffer (20 mM TRIS, 1 mM EDTA, 5 mM MgCl2, pH 7.4). The filters were then dried, impregnated with scintillate and their radioactivity was measured by scintillation counting. The analysis of the experiments was carried out by nonlinear least square curve fitting. Affinity constants (Ki) were calculated from the IC50 values according to the Cheng-Prusoff's equation (Cheng and Prusoff, 1973). Experiments were repeated a minimum of three times.
Regarding `Cc1ccc(S(=O)(=O)N[C@@H](CCCN)CSCc2ccccc2)c2ccccc12` [compound 1, (S)-4-methylnaphthalene-1-sulfonic acid (4-amino-1-benzylsulfanylmethylbutyl)amide], the Ki was below 300 nM.

Regarding `Cc1ccc(S(=O)(=O)N[C@@H](CCN)COCc2ccccc2)c2ccccc12` [compound 3, (S)-4-methylnaphthalene-1-sulfonic acid (3-amino-1-benzyl-oxymethylpropyl)amide], the Ki was below 300 nM.

On to `Cc1ccc(S(=O)(=O)N[C@@H](CCNC(=N)N)COCc2ccccc2)c2ccccc12` [compound 4, (S)-4-methylnaphthalene-1-sulfonic acid (1-benzyloxymethyl-3-guanidinylpropyl)amide], for which the inhibitory constant (Ki) is below 300 nM.

For the compound `Cc1ccc(COC[C@H](CCCN)NS(=O)(=O)c2ccc(C)c3ccccc23)cc1` [compound 12, (S)-4-methylnaphthalene-1-sulfonic acid [4-amino-1-(4-methylbenzyloxymethyl)butyl]amide], the Ki is below 300 nM.

For `Cc1ccc(S(=O)(=O)N[C@@H](CCCN)COc2ccccc2)c2ccccc12` [compound 13, (S)-4-methylnaphthalene-1-sulfonic acid (4-amino-1-phenoxymethylbutyl)amide], the Ki is below 300 nM.

With `Cc1ccc(S(=O)(=O)N[C@@H](CCCN)COCc2ccccc2)c2ccccc12` [compound 15, (S)-4-methyl-naphthalene-1-sulfonic acid (4-amino-1-benzyloxymethylbutyl)amide], the Ki was below 300 nM.

On to `Cc1ccc(S(=O)(=O)N[C@H](COCc2ccccc2)C(=O)NCCN)c2ccccc12` [compound 24, (R)-4-methylnaphthalene-1-sulfonic acid [1-(2-aminoethylcarbamoyl)-2-benzyloxyethyl]amide], for which the Ki is below 300 nM.

With `Cc1ccc(S(=O)(=O)N[C@@H](CNCCN(C)C)COCc2ccccc2)c2ccccc12` [compound 27, (S)-4-methylnaphthalene-1-sulfonic acid {2-benzyloxy-1-[(2-dimethylaminoethylamino)methyl]ethyl}amide], the Ki is below 300 nM.

Turning to `Cc1ccc(S(=O)(=O)N[C@H](CSCc2ccccc2)C(=O)NCCN)c2ccccc12` [compound 31, (S)-4-methylnaphthalene-1-sulfonic acid [1-(2-aminoethylcarbamoyl)-2-benzylsulfanylethyl]amide], the Ki was below 300 nM.

In the case of `Cc1ccc(S(=O)(=O)NC(CNCc2ccccc2)C2CCNCC2)c2ccccc12` (stereo not drawn) [compound 34, 4-methylnaphthalene-1-sulfonic acid (2-benzylamino-1-piperidin-4-ylethyl)amide], the Ki was below 300 nM.

On to `Cc1ccc(S(=O)(=O)N[C@@H](CCCN)CNCc2ccccc2)c2ccccc12` [compound 35, (S)-4-methylnaphthalene-1-sulfonic acid [4-amino-1-(benzylaminomethyl)butyl]amide], for which the Ki was below 300 nM.

As to `Cc1ccc(S(=O)(=O)N[C@@H](CCCN)CSc2ccccc2)c2ccccc12` [compound 67, (S)-4-methylnaphthalene-1-sulfonic acid (4-amino-1-phenylsulfanylmethylbutyl)amide], the Ki is below 300 nM.

`Cc1ccc(S(=O)(=O)N[C@@H](C(=O)NCCN)[C@H](C)OCc2ccccc2)c2ccccc12` [compound 70, (R)-4-methylnaphthalene-1-sulfonic acid [2-benzyloxy-2-(S)methyl-1-(aminoethylcarbamoyl)-ethyl]amide]: the Ki is below 300 nM.

Regarding `CCOC[C@H](CCCN)NS(=O)(=O)c1ccc(C)c2ccccc12` [compound 76, (S)-4-methylnaphthalene-1-sulfonic acid (4-amino-1-ethoxymethylbutyl)amide], the Ki is below 300 nM.

Turning to `Cc1ccc(S(=O)(=O)NC(CCCN)CNC2CCCCC2)c2ccccc12` (stereo not drawn) [compound 77, 4-methylnaphthalene-1-sulfonic acid (4-amino-1-cyclohexylaminomethyl-butyl)-amide formic acid salt], the Ki was below 300 nM.

With `NCCC[C@@H](COCc1ccccc1)NS(=O)(=O)c1ccc(F)c2ccccc12` [compound 78, (S)-4-fluoronaphthalene-1-sulfonic acid (4-amino-1-benzyloxymethylbutyl)amide], the Ki is below 300 nM.

On to `Cc1ccc(S(=O)(=O)N[C@@H](CCCN)COCC(C)C)c2ccccc12` [compound 80, (S)-4-methylnaphthalene-1-sulfonic acid (4-amino-1-isobutoxymethylbutyl)amide], for which the Ki is below 300 nM.

Consider `NCCC[C@@H](COCc1ccccc1)NS(=O)(=O)c1cccc2ccccc12` [compound 83, (S)-naphthalene-1-sulfonic acid (4-amino-1-benzyloxymethylbutyl)amide], for which the Ki is below 300 nM.

With `Cc1ccc(S(=O)(=O)N[C@H](COc2ccccc2)Cc2c[nH]cn2)c2ccccc12` [compound 84, (S)-4-methylnaphthalene-1-sulfonic acid [2-(1H-imidazol-4-yl)-1-phenoxymethylethyl]amide], the inhibition constant (Ki) is below 300 nM.

Turning to `Cc1ccc(S(=O)(=O)N[C@@H](CCCN)CN(C)Cc2ccccc2)c2ccccc12` [compound 85, (S)-4-methylnaphthalene-1-sulfonic acid {4-amino-1-[(benzylmethylamino)methyl]butyl}amide], the Ki is below 300 nM.

`Cc1ccc(S(=O)(=O)N[C@@H](CCCN)COc2ccsc2)c2ccccc12` [compound 87, (S)-4-methylnaphthalene-1-sulfonic acid [4-amino-1-(thiophen-3-yloxymethyl)-butyl]-amide]: the Ki is below 300 nM.

For `Cc1ccc(S(=O)(=O)N[C@@H](CCCN)COC(C)c2ccccc2)c2ccccc12` (stereo partly drawn) [compound 88, (S)-4-methyl-naphthalene-1-sulfonic acid [4-amino-1-(1-phenyl-ethoxy methyl)-butyl]-amide formic acid salt], the inhibition constant Ki was below 300 nM.

In the case of `Cc1ccc(S(=O)(=O)N[C@H](CNCc2ccccc2)Cc2c[nH]cn2)c2ccccc12` [compound 93, (S)-4-methylnaphthalene-1-sulfonic acid [1-(benzylaminomethyl)-2-(1H-imidazol-4-yl)ethyl]amide], the Ki is below 300 nM.

For `Cc1ccc(S(=O)(=O)N[C@H](CNc2ccccc2)Cc2c[nH]cn2)c2ccccc12` [compound 94, (S)-4-methylnaphthalene-1-sulfonic acid [2-(1H-imidazol-4-yl)-1-phenylaminomethylethyl]amide], the Ki is below 300 nM.

Turning to `Cc1ccc(S(=O)(=O)N[C@@H](CCN)COc2ccccc2)c2ccccc12` [compound 100, (S)-4-Methylnaphthalene-1-sulfonic acid (3-amino-1-phenoxymethylpropyl)amide], the inhibition constant Ki is below 300 nM.

For the compound `Cc1ccc(S(=O)(=O)N[C@@H](CCCN)COCc2ccc(F)cc2)c2ccccc12` [compound 101, (S)-4-methylnaphthalene-1-sulfonic acid [4-amino-1-(4-fluorobenzyloxymethyl)butyl]amide], the Ki is below 300 nM.

On to `Cc1ccc(S(=O)(=O)N[C@@H](CCCN)COCc2c(F)c(F)c(F)c(F)c2F)c2ccccc12` [compound 102, (S)-4-methylnaphthalene-1-sulfonic acid (4-amino-1-pentafluorophenylmethoxymethylbutyl)amide], for which the inhibitory constant (Ki) was below 300 nM.

In a further assay the target is T2, human somatostatin receptor subtype sst1 (Homo sapiens, UniProt P30872).
T2 construct: expressed in transfected cells; host or cells: CHO cells (membranes)
T2 sequence (P30872 whole entry): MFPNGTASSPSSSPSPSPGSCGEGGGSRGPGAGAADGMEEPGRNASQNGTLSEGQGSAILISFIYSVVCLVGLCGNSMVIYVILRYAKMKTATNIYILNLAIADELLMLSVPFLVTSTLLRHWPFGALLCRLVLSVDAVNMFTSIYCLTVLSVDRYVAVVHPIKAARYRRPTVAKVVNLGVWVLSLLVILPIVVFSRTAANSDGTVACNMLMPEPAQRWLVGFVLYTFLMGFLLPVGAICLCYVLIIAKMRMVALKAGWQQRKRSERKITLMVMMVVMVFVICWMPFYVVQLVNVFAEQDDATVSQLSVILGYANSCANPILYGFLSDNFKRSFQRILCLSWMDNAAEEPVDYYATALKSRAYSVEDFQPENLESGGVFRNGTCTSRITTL
Description: Competition binding with 125I-LTT-SRIF-28, CHO cell membranes, sst1. As to conditions: bound only; read-out: Ki values for the sst1. Here is the method: as §1
Consider `Cc1ccc(S(=O)(=O)N[C@@H](CCNC(=N)N)COCc2ccccc2)c2ccccc12` [compound 4, (S)-4-methylnaphthalene-1-sulfonic acid (1-benzyloxymethyl-3-guanidinylpropyl)amide], for which the Ki was below 300 nM.

As for `Cc1ccc(S(=O)(=O)N[C@@H](CCCN)COc2ccccc2)c2ccccc12` [compound 13, (S)-4-methylnaphthalene-1-sulfonic acid (4-amino-1-phenoxymethylbutyl)amide], the Ki was below 300 nM.

For `CCC(CC)NCCC[C@@H](COc1ccccc1)NS(=O)(=O)c1ccc(C)c2ccccc12` [compound 14, (S)-4-methylnaphthalene-1-sulfonic acid [4-(1-ethylpropylamino)-1-phenoxymethylbutyl]amide], the inhibition constant Ki was below 300 nM.

As for `Cc1ccc(S(=O)(=O)N[C@@H](CCCN)COCc2ccccc2)c2ccccc12` [compound 15, (S)-4-methyl-naphthalene-1-sulfonic acid (4-amino-1-benzyloxymethylbutyl)amide], the Ki is below 300 nM.

As to `Cc1ccc(S(=O)(=O)N[C@@H](CCCNC(C)C)CNC2CCCc3ccccc32)c2ccccc12` (stereo partly drawn) [compound 17, (S)-4-methylnaphthalene-1-sulfonic acid {4-isopropylamino-1-[(1,2,3,4-tetrahydronaphthalen-1-ylamino)methyl]butyl}amide], the Ki is below 300 nM.

Turning to `Cc1ccc(S(=O)(=O)N[C@@H](CNCCN(C)C)COCc2ccccc2)c2ccccc12` [compound 27, (S)-4-methylnaphthalene-1-sulfonic acid {2-benzyloxy-1-[(2-dimethylaminoethylamino)methyl]ethyl}amide], the inhibitory constant (Ki) is below 300 nM.

For the compound `Cc1ccc(S(=O)(=O)N[C@@H](CCCNC(C)C)CSCc2ccccc2)c2ccccc12` [compound 61, (S)-4-methylnaphthalene-1-sulfonic acid (1-benzylsulfanylmethyl-4-isopropylaminobutyl)amide], the Ki was below 300 nM.

Turning to `Cc1ccc(S(=O)(=O)N[C@@H](C(=O)NCCNC(C)C)[C@H](C)OCc2ccccc2)c2ccccc12` [compound 71, (R)-4-methylnaphthalene-1-sulfonic acid [2-benzyloxy-2-(S)methyl-1-(2-isopropylaminoethylcarbamoyl)-ethyl]amide], the Ki was below 300 nM.

`Cc1ccc(S(=O)(=O)N[C@@H](CCCNC(C)C)COc2ccc3cnccc3c2)c2ccccc12` [compound 105, (S)-4-methylnaphthalene-1-sulfonic acid [4-isopropylamino-1-(isoquinolin-6-yloxymethyl)butyl]amide]: the Ki is below 300 nM.

The Ki is a measure of affinity in units of concentration, obtained from inhibition or displacement.
